Assay results published in patent publication US20070190523A1 (priority 2002, published 2007).
Like-named read-outs stand apart in the source and are kept apart here.

Assays:
[1] = molecular target: recombinant HIV-1 protease (Human immunodeficiency virus type 1 group M subtype B, UniProt P04585); assay: biochemical; format: biochemical; settings: read-out: Ki
[2] = test system: wild-type HIV-1 strain IIIB; assay: microbe, parasite or virus in culture; format: cell-based
[3] = test system: mutant HIV-1 with I84V/L90M mutations; format: cell-based
84V90M [4] = molecular target: T1, 84V90M (Human immunodeficiency virus type 1 group M subtype B, UniProt P04585, I572V/L578M); assay: biochemical; format: biochemical, HIV; settings: Enzymatic assay, 84V90M; read-out: 84V90M IC50/nM
WT = WT (Human immunodeficiency virus type 1 group M subtype B, UniProt P04585); assay: cell-based; design: species or system HIV
[5] = test system: recombinant HIV-1 strains with resistance mutations in the protease gene; assay: Cross-Resistance Profile Assay, whole panel; format: cell-based; settings: {}
84V90M [6] = molecular target: T1, 84V90M; assay: cell-based; design: species or system HIV
30N82I88D = assay: microbe, parasite or virus in culture; format: cell-based, HIV; settings: Human immunodeficiency virus 1, read-out: Cell-based assay (MT-4) EC50/nM 30N82I88D
[7] = Human immunodeficiency virus 1, IIIB, MT2
[8] = fold difference in EC50 vs wild type, class symbols

## CCOC(=O)C(C)OP(=O)(Cc1ccc(N(C)CC(NC(=O)OC2COC3OCCC23)C(O)CN(CC(C)C)S(=O)(=O)c2ccc(OC)cc2)cc1)Oc1ccccc1 (stereo not shown)
[1]
  Ki: 0.01 to 0.1 nM
[2]; read-out: EC50
  EC50: 500 to 5000 nM
[3]; I84V/L90M mutant
  I84V/L90M fold change: +++ (>30)

## Nc1n[nH]c2ccc(CN3C(=O)N(Cc4ccc(OCP(=O)(O)O)cc4)C(Cc4ccccc4)C(O)C(O)C3Cc3ccccc3)cc12 (stereo not shown) [p-OCH2PO3H2]
84V90M [4]
  IC50: 1660 nM
WT
  EC50: > 12000 nM

## CCOP(=O)(COCCCCN1C(=O)N(Cc2ccc3[nH]nc(N)c3c2)C(Cc2ccccc2)C(O)C(O)C1Cc1ccccc1)OCC (stereo not shown) [CH2OCH2PO3Et2]
WT
  EC50: 119 nM

## Nc1n[nH]c2ccc(CN3C(=O)N(Cc4cccc(OCP(=O)(O)O)c4)C(Cc4ccccc4)C(O)C(O)C3Cc3ccccc3)cc12 (stereo not shown) [m-OCH2PO3H2]
WT
  EC50: > 12000 nM

## Cc1c(O)cccc1C(=O)N[C@@H](CSc1ccccc1)[C@H](O)CN1C[C@H]2CCCC[C@H]2C[C@H]1C(=O)NC(C)(C)C [Nelfinavir, nelfinavir]
[5]
  Total No. of Resistant Viruses: 9

## CCOP(=O)(COc1ccc(CC(NC(=O)OC2CCOC2)C(O)CN(CC(C)C)S(=O)(=O)c2ccc(OC)cc2)cc1)OCC (stereo not shown) [OMe, OEt]
[2]; [7]
  EC50: < 50 nM
[3]; I84V/L90M mutant
  I84V/L90M fold change: ++ (>10 to ≦30)

## Nc1n[nH]c2ccc(CN3C(=O)N(Cc4cccc(OCP(=O)(O)Oc5ccccc5)c4)C(Cc4ccccc4)C(O)C(O)C3Cc3ccccc3)cc12 (stereo not shown) [m-OCH2PO3HPh]
WT
  EC50: 1750 nM

## CCCCOC(=O)C(Cc1ccccc1)NP(=O)(COc1ccc(CC(NC(=O)OC2COC3OCCC23)C(O)CN(CC(C)C)S(=O)(=O)c2ccc(OC)cc2)cc1)NC(Cc1ccccc1)C(=O)OCCCC (stereo not shown) [Example 16j]
[2]; read-out: Anti-HIV-1 Cell Culture Activity EC50
  EC50: 35 ± 7 nM

## CCOP(=O)(COc1ccc2c(c1)CCN(CC(NC(=O)OC1COC3OCCC13)C(O)CN(CC(C)C)S(=O)(=O)c1ccc(OC)cc1)C2)OCC (stereo not shown)
[2]; [7]
  EC50: 50 to 500 nM
[3]; [8]
  I84V/L90M fold change: + (>3 to ≦10)

## CC(C)CN(C[C@@H](O)[C@H](Cc1ccccc1)NC(=O)O[C@H]1CCOC1)S(=O)(=O)c1ccc(N)cc1 [Amprenavir, amprenavir]
[5]
  Total No. of Resistant Viruses: 4

## COc1ccc(S(=O)(=O)N(CC(C)C)CC(O)C(Cc2ccc(NCP(=O)(O)O)cc2)NC(=O)OC2COC3OCCC23)cc1 (stereo not shown)
[2]; read-out: EC50
  EC50: 50 to 500 nM

## Nc1n[nH]c2ccc(CN3C(=O)N(Cc4ccc(OCP(=O)(OCc5ccccc5)OCc5ccccc5)cc4)C(Cc4ccccc4)C(O)C(O)C3Cc3ccccc3)cc12 (stereo not shown)
WT
  EC50: 2700 nM

## CCOP(=O)(COc1ccc(CN2C(=O)N(Cc3ccc4[nH]nc(N)c4c3)C(Cc3ccccc3)C(O)C(O)C2Cc2ccccc2)cc1)OCC (stereo not shown)
WT
  EC50: 2480 nM

## Nc1n[nH]c2ccc(CN3C(=O)N(Cc4cccc(OCc5ccccc5)c4)C(Cc4ccccc4)C(O)C(O)C3Cc3ccccc3)cc12 (stereo not shown) [m-OBn]
84V90M [4]
  IC50: 27 nM
WT
  EC50: 218 nM
84V90M [6]; MT-4, 84V90M, read-out: Cell-based assay (MT-4) EC50/nM 84V90M
  EC50: 2420 nM

## CCOC(=O)C(C)OP(=O)(Cc1ccc2c(c1)CCN(CC(NC(=O)OC1COC3OCCC13)C(O)CN(CC(C)C)S(=O)(=O)c1ccc(OC)cc1)C2)Oc1ccccc1 (stereo not shown)
[2]; Human immunodeficiency virus 1, IIIB, MT2, Table 10, class symbols
  EC50: 50 to 500 nM
[3]; [8]
  I84V/L90M fold change: + (>3 to ≦10)

## CCOP(=O)(COc1ccc(CC(NC(=O)OC2COC3OCCC23)C(O)CN(CC(C)C)S(=O)(=O)c2ccc(OC)cc2)cc1)OCC (stereo not shown) [drawing 602 R1=OEt R2=OEt]
[3]; [8]
  I84V/L90M fold change: − (≦3)

## CCOP(=O)(Cc1ccc2c(c1)CCN(CC(NC(=O)OC1COC3OCCC13)C(O)CN(CC(C)C)S(=O)(=O)c1ccc(OC)cc1)C2)OCC (stereo not shown)
[3]; [8]
  I84V/L90M fold change: + (>3 to ≦10)

## COC(=O)N[C@H](C(=O)N[C@@H](Cc1ccccc1)[C@@H](O)CN(Cc1ccc(-c2ccccn2)cc1)NC(=O)[C@@H](NC(=O)OC)C(C)(C)C)C(C)(C)C [Atazanavir, reference compound]
[3]; [8]
  I84V/L90M fold change: +++ (>30)

## Nc1n[nH]c2ccc(CN3C(=O)N(Cc4ccc(OCc5ccccc5)cc4)C(Cc4ccccc4)C(O)C(O)C3Cc3ccccc3)cc12 (stereo not shown) [p-OBn]
84V90M [4]
  IC50: 781 nM
WT
  EC50: 2120 nM
84V90M [6]
  EC50: 5310 nM
30N82I88D
  EC50: 1550 nM

## Cc1cccc(C)c1OCC(=O)N[C@@H](Cc1ccc(OCP(=O)(Oc2ccccc2)Oc2ccccc2)cc1)[C@H](O)CN(CC(C)C)S(=O)(=O)c1ccc(N)cc1
[1]
  Ki: 0.01 to 0.1 nM

## CCCCOC(=O)C(C)OP(=O)(COc1ccc(CC(NC(=O)OC2COC3OCCC23)C(O)CN(CC(C)C)S(=O)(=O)c2ccc(OC)cc2)cc1)Oc1ccccc1 (stereo not shown) [drawing 609 R1=OPh R2=Lac-Bu]
[3]; [8]
  I84V/L90M fold change: − (≦3)

## CCOC(=O)C(CC)NP(=O)(COc1ccc(CC(NC(=O)OC2COC3OCCC23)C(O)CN(CC(C)C)S(=O)(=O)c2ccc(OC)cc2)cc1)NC(CC)C(=O)OCC (stereo not shown) [drawing 606 R1=Aba-Et R2=Aba-Et]
[2]; [7]
  EC50: < 50 nM

## COc1ccc(S(=O)(=O)N(CC(C)C)CC(O)C(Cc2ccc(OCP(=O)(Oc3ccccc3)OC(C)C(=O)OC(C)C)cc2)NC(=O)OC2COC3OCCC23)cc1 (stereo not shown) [drawing 609 R1=OPh R2=Lac-iPr]
[3]; [8]
  I84V/L90M fold change: − (≦3)
